Data published in ChEMBL document CHEMBL3639079, “Hydroxamic acid derivative” (2015).

Molecular target: T1, UDP-3-O-acyl-N-acetylglucosamine deacetylase (Pseudomonas aeruginosa (strain ATCC 15692 / PAO1 / 1C / PRS 101 / LMG12228), UniProt P47205)
T1 sequence (P47205 whole entry): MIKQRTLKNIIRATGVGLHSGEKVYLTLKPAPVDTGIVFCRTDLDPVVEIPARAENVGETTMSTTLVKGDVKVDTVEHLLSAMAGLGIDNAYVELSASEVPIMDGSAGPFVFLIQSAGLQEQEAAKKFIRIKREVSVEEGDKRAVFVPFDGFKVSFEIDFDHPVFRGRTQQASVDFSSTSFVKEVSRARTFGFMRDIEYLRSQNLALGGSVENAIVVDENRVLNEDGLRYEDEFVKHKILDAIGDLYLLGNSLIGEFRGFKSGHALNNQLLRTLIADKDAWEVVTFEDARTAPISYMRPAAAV
Description: The reaction was performed in 40 mmol/L of Hepes buffer solution (pH 8.0) supplemented with 0.02% Bridge 35 and 80 µmol/L of dithiothreitol. To terminate the reaction, 0.2 mol/L of borax was added to the reaction mixture.

CNC(=O)C(C(=O)NO)N(C)C(=O)c1ccc(-c2ccc(OCCCN3CCOCC3)cc2)cc1 (stereo unspecified)
IC50: 6.7 nM
